In PMC6302903, “Protein and Chemical Determinants of BL-1249 Action and Selectivity for K2P Channels” (ACS Chemical Neuroscience, 2018):

Biological target: T1, K2P13.1(THIK-1) (Mus musculus, UniProt Q8R1P5)
T1 construct: expressed in transfected cells; host or cells: Xenopus laevis oocytes (mRNA injection, pGEMHE/pMO)
Test: TEVC of K2P13.1(THIK-1) in Xenopus oocytes
Type: cell-based
Settings: concentrations up to the solubility limit (∼80 μM)
Method: BL-1249 activates K2P2.1(TREK-1)[18],[40] and K2P10.1(TREK-2),[7] but its effects on other K2P channels have not been characterized. […] In order to test if the original 10 μM assay had missed BL-1249 effects in other K2P channels, we tested concentrations of BL-1249 up to the solubility limit (∼80 μM) against the other K2P subfamily representatives. […]
Xenopus laevis oocytes were harvested in accordance with UCSF IACUC protocol AN129690 and digested in calcium-free ND-96 (96 mM NaCl, 2 mM KCl, 3.8 mM MgCl2) immediately following harvest, as previously described.[6],[10] […] Defolliculated stage V–VI oocytes were injected with 0.2–6.0 ng of mRNA in 50 nL, and currents were recorded 24–48 h after injection. mRNA was synthesized from plasmid DNA using mMessage mMachine Kit (T7 promoter, Ambion, Life Technologies) and purified using RNEasy Kit (Qiagen). […] Once stabilized basal currents were recorded, compounds were perfused at various concentrations in standard ND96 and currents were allowed to increase to stabilization before recording final current. Fold activation upon compound application is expressed as I/I0 (0 mV), derived from the current at 0 mV in the presence of compound divided by the basal current at 0 mV in standard ND96 without compound. Data were analyzed and plotted using Graphpad Prism Version 5 (GraphPad Software, San Diego California USA, www.graphpad.com). […]

T1 sequence (Q8R1P5 whole entry): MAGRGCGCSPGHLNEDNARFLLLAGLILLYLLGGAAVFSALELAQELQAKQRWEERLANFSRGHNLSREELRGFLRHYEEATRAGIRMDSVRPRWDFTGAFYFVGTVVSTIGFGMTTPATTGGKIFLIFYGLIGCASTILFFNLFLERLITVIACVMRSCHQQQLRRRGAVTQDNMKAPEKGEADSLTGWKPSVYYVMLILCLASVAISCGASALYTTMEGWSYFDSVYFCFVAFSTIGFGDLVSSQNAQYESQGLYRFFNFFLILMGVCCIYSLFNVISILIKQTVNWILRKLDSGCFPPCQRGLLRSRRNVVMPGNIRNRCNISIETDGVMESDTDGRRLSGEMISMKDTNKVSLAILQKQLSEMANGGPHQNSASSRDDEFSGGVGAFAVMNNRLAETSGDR

For `c1ccc(-c2nnn[nH]2)c(Nc2cccc3c2CCCC3)c1` [BL-1249, (5,6,7,8-tetrahydro-naphthalen-1-yl)-[2-(1H-tetrazol-5-yl)-phenyl]-amine], which “activation of K2P13.1(THIK-1)” value is on record?
The value was “failed to find evidence for activation”.
